Results from PMC5218480 (PLoS ONE, 2017).

Test system: MV-4-11 cells
Assay: Gene expression microarray analysis (Affymetrix PrimeView) and GSEA
Type: cell-based, human
Set-up: RFU PODN (11730768_x_at) / Fold change /veh PODN (11730768_x_at) / RFU LINC00158 (11744669_a_at) / Fold change /veh LINC00158 (11744669_a_at) / RFU DUSP10 (11751237_a_at) / Fold change /veh DUSP10 (11751237_a_at) / RFU ID3 (11757404_x_at) / Fold change /veh ID3 (11757404_x_at) / RFU PLEKHG5 (11737974_s_at) / Fold change /veh PLEKHG5 (11737974_s_at) / RFU LRRC4B (11730491_at) / Fold change /veh LRRC4B (11730491_at) / RFU GIMAP4 (11747438_a_at) / Fold change /veh GIMAP4 (11747438_a_at) / RFU KRT8 (11758183_x_at) / Fold change /veh KRT8 (11758183_x_at) / RFU CNN1 (11734310_a_at) / Fold change /veh CNN1 (11734310_a_at) / RFU VPS37D (11726825_at) / Fold change /veh VPS37D (11726825_at) / RFU C10orf10 (11716522_x_at) / Fold change /veh C10orf10 (11716522_x_at) / RFU KIR2DL2 /// KIR2DL4 /// KIR2DL5A /// KIR2DL5B /// KIR2DS1 /// KIR2DS2 /// KIR2DS3 /// KIR2DS4 /// KIR3DL3 /// KIR3DL3 /// KIR3DS1 (11738374_at) / Fold change /veh KIR2DL2 /// KIR2DL4 /// KIR2DL5A /// KIR2DL5B /// KIR2DS1 /// KIR2DS2 /// KIR2DS3 /// KIR2DS4 /// KIR3DL3 /// KIR3DL3 /// KIR3DS1 (11738374_at) / RFU C1QL1 (11718748_at) / Fold change /veh C1QL1 (11718748_at) / RFU TMPRSS4 (11747572_a_at) / Fold change /veh TMPRSS4 (11747572_a_at) / RFU HAMP (11756126_x_at) / Fold change /veh HAMP (11756126_x_at) / RFU RNFT2 (11725882_a_at) / Fold change /veh RNFT2 (11725882_a_at) / RFU NR4A2 (11747474_a_at) / Fold change /veh NR4A2 (11747474_a_at) / RFU ABCC12 (11746883_a_at) / Fold change /veh ABCC12 (11746883_a_at) / RFU TMEM136 (11760407_x_at) / Fold change /veh TMEM136 (11760407_x_at) / RFU CLDN22 /// WWC2 (11732394_at) / Fold change /veh CLDN22 /// WWC2 (11732394_at) / RFU HLA-DPB1 (11760878_x_at) / Fold change /veh HLA-DPB1 (11760878_x_at) / RFU SPINT1 (11716480_a_at) / Fold change /veh SPINT1 (11716480_a_at) / RFU GAP43 (11754022_s_at) / Fold change /veh GAP43 (11754022_s_at) / RFU A4GNT (11735810_at) / Fold change /veh A4GNT (11735810_at) / RFU PRB3 (11715151_x_at) / Fold change /veh PRB3 (11715151_x_at) / RFU TUBB4B (11761932_at) / Fold change /veh TUBB4B (11761932_at) / RFU CAPN14 (11732068_a_at) / Fold change /veh CAPN14 (11732068_a_at) / RFU TMCC2 (11721928_a_at) / Fold change /veh TMCC2 (11721928_a_at) / RFU IRGQ (11745062_a_at) / Fold change /veh IRGQ (11745062_a_at) / RFU FAM174B (11720279_a_at) / Fold change /veh FAM174B (11720279_a_at) / RFU TMPRSS4 (11748680_a_at) / Fold change /veh TMPRSS4 (11748680_a_at) / RFU FAM212B (11763350_a_at) / Fold change /veh FAM212B (11763350_a_at) / RFU PLEKHG5 (11743358_a_at) / Fold change /veh PLEKHG5 (11743358_a_at) / RFU ZSCAN30 (11745921_a_at) / Fold change /veh ZSCAN30 (11745921_a_at) / RFU CMKLR1 (11741424_a_at) / Fold change /veh CMKLR1 (11741424_a_at) / RFU LOC101060620 /// MAPK8IP1 (11723275_at) / Fold change /veh LOC101060620 /// MAPK8IP1 (11723275_at) / RFU SPTSSB (11747773_x_at) / Fold change /veh SPTSSB (11747773_x_at) / RFU PRSS12 (11739890_at) / Fold change /veh PRSS12 (11739890_at) / RFU BIN1 (11741810_x_at) / Fold change /veh BIN1 (11741810_x_at) / RFU WNT11 (11732464_a_at) / Fold change /veh WNT11 (11732464_a_at) / RFU C10orf10 (11716521_a_at) / Fold change /veh C10orf10 (11716521_a_at) / RFU C5orf56 (11738089_at) / Fold change /veh C5orf56 (11738089_at) / RFU CYB561 (11721691_x_at) / Fold change /veh CYB561 (11721691_x_at) / RFU ANKRD19P (11752326_a_at) / Fold change /veh ANKRD19P (11752326_a_at) / RFU OR2T12 /// OR2T33 /// OR2T8 (11738714_s_at) / Fold change /veh OR2T12 /// OR2T33 /// OR2T8 (11738714_s_at) / RFU VCAN (11748164_a_at) / Fold change /veh VCAN (11748164_a_at) / RFU JSRP1 (11732532_at) / Fold change /veh JSRP1 (11732532_at) / RFU KRTAP10-11 (11738290_x_at) / Fold change /veh KRTAP10-11 (11738290_x_at) / RFU MYO3A (11730013_a_at) / Fold change /veh MYO3A (11730013_a_at) / RFU EBF3 (11725865_a_at) / Fold change /veh EBF3 (11725865_a_at) / RFU CAMK2N1 (11719241_x_at) / Fold change /veh CAMK2N1 (11719241_x_at) / RFU C5orf56 (11738088_a_at) / Fold change /veh C5orf56 (11738088_a_at) / RFU OLFML3 (11715873_a_at) / Fold change /veh OLFML3 (11715873_a_at) / RFU LOC100653217 /// NTM (11731650_a_at) / Fold change /veh LOC100653217 /// NTM (11731650_a_at) / RFU MAPK11 (11762145_a_at) / Fold change /veh MAPK11 (11762145_a_at) / RFU FIZ1 (11724087_x_at) / Fold change /veh FIZ1 (11724087_x_at) / RFU OASL (11726364_x_at) / Fold change /veh OASL (11726364_x_at) / RFU SOX15 (11748057_x_at) / Fold change /veh SOX15 (11748057_x_at) / RFU CD79A (11719716_a_at) / Fold change /veh CD79A (11719716_a_at) / RFU HIST1H1D (11736915_at) / Fold change /veh HIST1H1D (11736915_at) / RFU CASKIN2 (11723855_a_at) / Fold change /veh CASKIN2 (11723855_a_at) / RFU LOC730098 (11760151_x_at) / Fold change /veh LOC730098 (11760151_x_at) / RFU OR4N2 (11742367_at) / Fold change /veh OR4N2 (11742367_at) / RFU PRRT2 (11749266_a_at) / Fold change /veh PRRT2 (11749266_a_at) / RFU SNX32 (11753110_a_at) / Fold change /veh SNX32 (11753110_a_at) / RFU CDHR5 (11726645_a_at) / Fold change /veh CDHR5 (11726645_a_at) / RFU RCAN1 (11760418_a_at) / Fold change /veh RCAN1 (11760418_a_at) / RFU FAM167A (11723789_a_at) / Fold change /veh FAM167A (11723789_a_at) / RFU FAM26E (11764081_at) / Fold change /veh FAM26E (11764081_at) / RFU ISYNA1 (11749810_s_at) / Fold change /veh ISYNA1 (11749810_s_at) / RFU ACY1 (11761880_at) / Fold change /veh ACY1 (11761880_at) / RFU 11764098_at / Fold change /veh 11764098_at / RFU SAMD14 (11745864_x_at) / Fold change /veh SAMD14 (11745864_x_at) / RFU NPB (11741838_a_at) / Fold change /veh NPB (11741838_a_at) / RFU TMPRSS6 (11731388_a_at) / Fold change /veh TMPRSS6 (11731388_a_at) / RFU KRTAP10-2 (11738614_at) / Fold change /veh KRTAP10-2 (11738614_at) / RFU ARHGAP8 /// PRR5-ARHGAP8 (11727945_x_at) / Fold change /veh ARHGAP8 /// PRR5-ARHGAP8 (11727945_x_at) / RFU KRTAP5-7 /// NADSYN1 (11734609_at) / Fold change /veh KRTAP5-7 /// NADSYN1 (11734609_at) / RFU RASL12 (11751679_a_at) / Fold change /veh RASL12 (11751679_a_at) / RFU CDKN2B (11736163_a_at) / Fold change /veh CDKN2B (11736163_a_at) / RFU PRF1 (11729649_at) / Fold change /veh PRF1 (11729649_at) / RFU, ZNF638 /// ZNF638-IT1 / Fold change vs veh, ZNF638 /// ZNF638-IT1 / RFU, PANK3 / Fold change vs veh, PANK3 / RFU, SH3YL1 / Fold change vs veh, SH3YL1 / RFU, ZEB2 / Fold change vs veh, ZEB2 / RFU, NRIP1 / Fold change vs veh, NRIP1 / RFU, PTTG1IP / Fold change vs veh, PTTG1IP / RFU, CAPN2 / Fold change vs veh, CAPN2 / RFU, MED14 / Fold change vs veh, MED14 / RFU, SNORA58 / Fold change vs veh, SNORA58 / RFU, C1orf63 / Fold change vs veh, C1orf63 / RFU, LRRFIP1 / Fold change vs veh, LRRFIP1 / RFU, NDUFAF7 / Fold change vs veh, NDUFAF7 / RFU, SLC12A2 / Fold change vs veh, SLC12A2 / RFU, IBTK / Fold change vs veh, IBTK / RFU, ESF1 / Fold change vs veh, ESF1 / Fold change vs veh, TMEM50B / RFU, TAOK1 / Fold change vs veh, TAOK1 / RFU, ACBD3 / Fold change vs veh, ACBD3 / RFU, TMA16 / Fold change vs veh, TMA16 / RFU, RWDD3 / Fold change vs veh, RWDD3 / RFU, BCAT1 / Fold change vs veh, BCAT1 / RFU, EDEM3 / Fold change vs veh, EDEM3 / RFU, TMEM33 / Fold change vs veh, TMEM33 / RFU, WDR75 / Fold change vs veh, WDR75 / RFU, AHCTF1 / Fold change vs veh, AHCTF1 / RFU, TFRC / Fold change vs veh, TFRC / RFU, ZDHHC17 / Fold change vs veh, ZDHHC17 / RFU, NOM1 / Fold change vs veh, NOM1 / RFU, ARL8B / Fold change vs veh, ARL8B / RFU, ZBTB11 / Fold change vs veh, ZBTB11 / RFU, TAMM41 / Fold change vs veh, TAMM41 / RFU, KIAA1704 /// LOC100996395 / Fold change vs veh, KIAA1704 /// LOC100996395 / RFU, ING1 / Fold change vs veh, ING1 / RFU, TRMT61B / Fold change vs veh, TRMT61B / RFU, FUBP3 / Fold change vs veh, FUBP3 / RFU, TP53 / Fold change vs veh, TP53 / RFU, TNKS2 / Fold change vs veh, TNKS2 / RFU, ZFP14 / Fold change vs veh, ZFP14 / RFU, ACTR2 / Fold change vs veh, ACTR2 / RFU, PPP3R1 / Fold change vs veh, PPP3R1 / RFU, PIK3R1 / Fold change vs veh, PIK3R1 / RFU, HNRNPA1 / Fold change vs veh, HNRNPA1 / RFU, RNF170 / Fold change vs veh, RNF170 / RFU, ZNF28 / Fold change vs veh, ZNF28 / RFU, RNGTT / Fold change vs veh, RNGTT / RFU, OGT / Fold change vs veh, OGT / RFU, BRD1 / Fold change vs veh, BRD1 / RFU, MARS / Fold change vs veh, MARS / RFU, ZNF655 / Fold change vs veh, ZNF655 / RFU, FAHD1 / Fold change vs veh, FAHD1 / RFU, BDP1 / Fold change vs veh, BDP1 / RFU, LRRCC1 / Fold change vs veh, LRRCC1 / RFU, ARID1A / Fold change vs veh, ARID1A / RFU, ZNF146 / Fold change vs veh, ZNF146 / RFU, ZNF330 / Fold change vs veh, ZNF330 / RFU, GPN3 / Fold change vs veh, GPN3 / RFU, C9orf123 / Fold change vs veh, C9orf123 / RFU, N4BP2L2 / Fold change vs veh, N4BP2L2 / RFU, ARFIP1 / Fold change vs veh, ARFIP1 / RFU, FAM179B / Fold change vs veh, FAM179B / RFU, BCL10 / Fold change vs veh, BCL10 / RFU, UHRF1BP1L / Fold change vs veh, UHRF1BP1L / RFU, BET1 / Fold change vs veh, BET1 / RFU, CNOT2 / Fold change vs veh, CNOT2 / RFU, ZNF268 / Fold change vs veh, ZNF268 / Fold change vs veh, ZNF507 / RFU, DGCR2 / Fold change vs veh, DGCR2 / RFU, WDSUB1 / Fold change vs veh, WDSUB1 / Fold change vs veh, HSP90B1 /// MIR3652 / RFU, ADSS / Fold change vs veh, ADSS / RFU, GK / Fold change vs veh, GK / RFU, ZNF148 / Fold change vs veh, ZNF148 / RFU, TAF9 / Fold change vs veh, TAF9 / RFU, SLC1A5 / Fold change vs veh, SLC1A5 / RFU, SLMO2 / Fold change vs veh, SLMO2 / RFU, ABCC4 / Fold change vs veh, ABCC4 / RFU, LOC101060439 /// RAP1B / Fold change vs veh, LOC101060439 /// RAP1B / RFU, RFX7 / Fold change vs veh, RFX7 / RFU, GTPBP10 / Fold change vs veh, GTPBP10 / RFU, CNEP1R1 / Fold change vs veh, CNEP1R1 / RFU, BIVM-ERCC5 /// ERCC5 / Fold change vs veh, BIVM-ERCC5 /// ERCC5 / RFU, ILF3 / Fold change vs veh, ILF3 / RFU 11762660_at / Fold change /veh 11762660_at / RFU VCAN (11757783_s_at) / Fold change /veh VCAN (11757783_s_at) / RFU DDX43 (11728927_at) / Fold change /veh DDX43 (11728927_at) / RFU KRT8 (11758188_x_at) / Fold change /veh KRT8 (11758188_x_at) / RFU NKD1 (11759106_at) / Fold change /veh NKD1 (11759106_at) / RFU SRD5A1 (11742802_a_at) / Fold change /veh SRD5A1 (11742802_a_at) / RFU TPSAB1 /// TPSB2 (11721975_s_at) / Fold change /veh TPSAB1 /// TPSB2 (11721975_s_at) / RFU GSTM3 (11746129_a_at) / Fold change /veh GSTM3 (11746129_a_at) / RFU IL23R (11737362_x_at) / Fold change /veh IL23R (11737362_x_at) / RFU TMEM51 (11727254_a_at) / Fold change /veh TMEM51 (11727254_a_at) / RFU PIWIL2 (11732686_x_at) / Fold change /veh PIWIL2 (11732686_x_at) / RFU ORM1 (11744905_x_at) / Fold change /veh ORM1 (11744905_x_at) / RFU CCDC152 (11743942_at) / Fold change /veh CCDC152 (11743942_at) / RFU ECM1 (11717891_a_at) / Fold change /veh ECM1 (11717891_a_at) / RFU IL23R (11748794_a_at) / Fold change /veh IL23R (11748794_a_at) / RFU TNFAIP8L3 (11732012_x_at) / Fold change /veh TNFAIP8L3 (11732012_x_at) / RFU MBOAT4 (11741988_at) / Fold change /veh MBOAT4 (11741988_at) / RFU 11764193_at / Fold change /veh 11764193_at / RFU TMEM53 (11763286_at) / Fold change /veh TMEM53 (11763286_at) / RFU MAGEB2 (11727129_at) / Fold change /veh MAGEB2 (11727129_at) / RFU TMEM200A (11744735_a_at) / Fold change /veh TMEM200A (11744735_a_at) / RFU CCDC152 (11751479_a_at) / Fold change /veh CCDC152 (11751479_a_at) / RFU FAM211A (11726209_a_at) / Fold change /veh FAM211A (11726209_a_at) / RFU RGS16 (11746705_a_at) / Fold change /veh RGS16 (11746705_a_at) / RFU VCAN (11755009_s_at) / Fold change /veh VCAN (11755009_s_at) / RFU RHOB (11743442_s_at) / Fold change /veh RHOB (11743442_s_at) / RFU RGS16 (11720943_a_at) / Fold change /veh RGS16 (11720943_a_at) / RFU RGS16 (11720944_at) / Fold change /veh RGS16 (11720944_at) / RFU, VPS4B / Fold change vs veh, VPS4B / RFU, CREB1 / Fold change vs veh, CREB1 / RFU, DNAJC13 / Fold change vs veh, DNAJC13 / RFU, GNAQ / Fold change vs veh, GNAQ / RFU, CDK5R1 / Fold change vs veh, CDK5R1 / RFU, ZRANB3 / Fold change vs veh, ZRANB3 / RFU, CUL4A / Fold change vs veh, CUL4A / RFU, CCNY / Fold change vs veh, CCNY / RFU, UFL1 / Fold change vs veh, UFL1 / RFU, COG3 / Fold change vs veh, COG3 / RFU, DIAPH2 / Fold change vs veh, DIAPH2 / RFU, SKA2 / Fold change vs veh, SKA2 / RFU, AFF3 / Fold change vs veh, AFF3 / RFU, LMF1 / Fold change vs veh, LMF1 / RFU, IPO11 / Fold change vs veh, IPO11 / RFU, DFFB / Fold change vs veh, DFFB / RFU, FOXP1 / Fold change vs veh, FOXP1 / RFU, CARD8 / Fold change vs veh, CARD8 / RFU, STRN3 / Fold change vs veh, STRN3 / RFU, ADK / Fold change vs veh, ADK / RFU, RASSF2 / Fold change vs veh, RASSF2 / RFU, WIPF1 / Fold change vs veh, WIPF1 / RFU, LARP1B / Fold change vs veh, LARP1B / RFU, RASA1 / Fold change vs veh, RASA1 / RFU, RB1 / Fold change vs veh, RB1 / RFU, PPFIA1 / Fold change vs veh, PPFIA1 / RFU, MAT2A / Fold change vs veh, MAT2A / RFU, CCT5 / Fold change vs veh, CCT5 / RFU, WDR92 / Fold change vs veh, WDR92 / RFU, CUX1 / Fold change vs veh, CUX1 / RFU, TTC7A / Fold change vs veh, TTC7A / RFU, TMEM135 / Fold change vs veh, TMEM135 / RFU, DEPTOR / Fold change vs veh, DEPTOR / RFU, CPM / Fold change vs veh, CPM / RFU, DNAJB6 / Fold change vs veh, DNAJB6 / RFU, CACNA2D3 / Fold change vs veh, CACNA2D3 / RFU, DTX4 / Fold change vs veh, DTX4 / RFU, TFCP2 / Fold change vs veh, TFCP2 / RFU, GMCL1 /// GMCL1P1 / Fold change vs veh, GMCL1 /// GMCL1P1 / RFU, AEBP2 / Fold change vs veh, AEBP2 / RFU, SNHG1 /// SNORD22 /// SNORD25 /// SNORD26 /// SNORD27 /// SNORD28 /// SNORD29 /// SNORD31 / Fold change vs veh, SNHG1 /// SNORD22 /// SNORD25 /// SNORD26 /// SNORD27 /// SNORD28 /// SNORD29 /// SNORD31 / Fold change (Aza/veh), C12orf56 (ProbeSet 11735607_a_at) / Fold change (ACY-1035/veh), C12orf56 (ProbeSet 11735607_a_at) / Fold change (Aza/veh), FGFR1OP (ProbeSet 11751329_s_at) / Fold change (ACY-1035/veh), FGFR1OP (ProbeSet 11751329_s_at) / Fold change (Aza/veh), VPS36 (ProbeSet 11739960_a_at) / Fold change (ACY-1035/veh), VPS36 (ProbeSet 11739960_a_at) / RFU SYPL1 (11715823_x_at) / Fold change /veh SYPL1 (11715823_x_at) / RFU IGFBP7 (11715501_s_at) / Fold change /veh IGFBP7 (11715501_s_at) / RFU REEP3 (11722064_at) / Fold change /veh REEP3 (11722064_at) / RFU IGLL1 (11728026_x_at) / Fold change /veh IGLL1 (11728026_x_at): dose or concentration left out as unconfirmed
Details: MV-4-11 cells, 48 hours

SMILES: Nc1ncn([C@@H]2O[C@H](CO)[C@@H](O)[C@H]2O)c(=O)n1 [azacitidine]
- RFU FAM167A (11723789_a_at): 38.83 RFU
